In paper PMC9246773, “Assessing the Activity of Antimicrobial Peptides Against Common Marine Bacteria Located in Rotifer (Brachionus plicatilis) Cultures” (Probiotics and Antimicrobial Proteins, 2022):
Values after ≈ are worked out from the molar mass of the structure shown. Non-standard residues stand in square brackets, D forms with d. Residues, ends and D or L forms follow the SMILES beside them.

Tests used:
[1] = system: Escherichia coli (ATCC 25922); assay type: cell-based; settings: ATCC 25922, 48 h
Method in brief: (§1)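 2-fold peptide dilutions (0.125 - 65µg mL^-1), ~5 × 10^5 CFU mL^-1, MHB at 25‰ or 0‰ salinity; ± acetic acid (0.01% w/v, 0.2% BSA) diluent. 25 °C, read 24 and 48 h; visual MIC at 48 h, duplicates.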

Shewanella sp. [2] = assay type: cell-based; settings: 48 h
Method in brief: as §1

Vibrio alginolyticus [3] = assay type: cell-based; settings: 48 h
Method in brief: as §1

[4] = system: Vibrio harveyi (ATCC 35084); assay type: cell-based; settings: ATCC 35084, 48 h
Method in brief: as §1

Vibrio harveyi [5] = assay type: cell-based; settings: 48 h
Method in brief: as §1

Vibrio rotiferianus [6] = assay type: cell-based; settings: 48 h
Method in brief: as §1

Vibrio scophthalmi [7] = assay type: cell-based; settings: 48 h
Method in brief: as §1

[8] = system: Escherichia coli (ATCC 25922); assay type: cell-based; settings: ATCC 25922, 48 h; remark: listed apart in the source
Method in brief: (§2)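 Broth microdilution MIC of peptides in Mueller-Hinton broth (MHB) at 0‰ and 25‰ artificial-seawater salinity, twofold dilutions over 0.125–65 µg mL^−1, inoculum ~5 × 10^5 CFU mL^−1 from 0.5 McFarland suspensions. T. discolor and Pseudoalteromonas sp. were not tested at 0‰. T. discolor was tested in diluted MHB (1:7 in 25‰ seawater).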

Pseudoalteromonas sp. = assay type: cell-based; settings: 48 h
Method in brief: as §2

Shewanella sp. [9] = assay type: cell-based; settings: 48 h; remark: listed apart in the source
Method in brief: as §2

Tenacibaculum discolor = assay type: cell-based; settings: 48 h
Method in brief: as §2

Vibrio alginolyticus [10] = assay type: cell-based; settings: 48 h; remark: listed apart in the source
Method in brief: as §2

[11] = system: Vibrio harveyi (ATCC 35084); assay type: cell-based; settings: ATCC 35084, 48 h; remark: listed apart in the source
Method in brief: as §2

Vibrio harveyi [12] = assay type: cell-based; settings: 48 h; remark: listed apart in the source
Method in brief: as §2

Vibrio rotiferianus [13] = assay type: cell-based; settings: 48 h; remark: listed apart in the source
Method in brief: as §2

Vibrio scophthalmi [14] = assay type: cell-based; settings: 48 h; remark: listed apart in the source
Method in brief: as §2

[15] = Test whether the AMPs precipitated in MHB and required acetic acid adjustments; assay type: physicochemical; settings: MIC two or more dilutions higher without acetic acid than with acetic acid = requires acetic acid adjustments; MHB 0‰
Description: The protocol was followed to determine the minimum inhibitory concentration (MIC) of the selected peptides. Two MIC assays were performed, firstly to determine whether each peptide precipitated in MHB and thereby required acetic acid adjustments (supplementary materials) and secondly, to determine the antimicrobial activity of each peptide in artificial seawater (25‰). Peptide stock solutions (1.3 mg mL^−1) were made by diluting the peptides in sterile deionised water. MHB was made with deionised water to reach a concentration of approaching 0‰ and artificial sea salts (Sigma-Aldrich® S9883) to reach a salinity of 25‰.
A broth microdilution protocol was followed to test whether the AMPs precipitated in MHB. The isolates T. discolor and Pseudoalteromonas were excluded from this assay because they required marine salts for growth. The peptides HHC10 and HHC36 previously required acetic acid adjustments according to [63] and were not trialled in this assay. To test if peptides required acetic acid, each peptide was diluted 1:2 in acetic acid (0.02% acetic acid w/v, containing 0.4% BSA) solution. […] The 96-well plates were incubated at 25 °C and read at 24 and 48 hours. The MIC was visually determined using a Sensititre™ Vizion™ Digital MIC Viewing System (Thermo Scientific™), and the lowest AMP concentration that had no bacterial growth was recorded as the MIC after 48 hours. […]

[16] = system: MRSA and P. aeruginosa bacterial infections; settings: MRSA and P. aeruginosa infections in mice and nematodes, respectively; ref [23], [64], [65]; cited from earlier work
Description: The MIC assay under high salt concentration identified these peptides as being effective against V. rotiferianus and T. discolor at a high peptide concentration (65 µg mL^−1), however, the two bacterial species were not identified in the control rotifer culture, and the reduction of their presence cannot be quantified. In relation to other AMP research, the majority of AMPs are currently teste ...

- MIC E. coli ATCC 25922, Acetic [1]: 4.06 µg/mL (≈ 2.62 µM)
- MIC E. coli ATCC 25922, No acetic [1]: 8.13 µg/mL (≈ 5.24 µM)
- MIC Shewanella sp., Acetic (Shewanella sp. [2]): 1.02 µg/mL (≈ 0.658 µM)
- MIC Shewanella sp., No acetic (Shewanella sp. [2]): 1.02 µg/mL (≈ 0.658 µM)
- MIC V. alginolyticus, Acetic (Vibrio alginolyticus [3]): 4.06 µg/mL (≈ 2.62 µM)
- MIC V. alginolyticus, No acetic (Vibrio alginolyticus [3]): 4.06 µg/mL (≈ 2.62 µM)
- MIC V. harveyi ATCC 35084, Acetic [4]: 4.06 µg/mL (≈ 2.62 µM)
- MIC V. harveyi ATCC 35084, No acetic [4]: 2.03 µg/mL (≈ 1.31 µM)
- MIC V. harveyi, Acetic (Vibrio harveyi [5]): 2.03 µg/mL (≈ 1.31 µM)
- MIC V. harveyi, No acetic (Vibrio harveyi [5]): 4.06 µg/mL (≈ 2.62 µM)
- MIC V. rotiferianus, Acetic (Vibrio rotiferianus [6]): 1.02 µg/mL (≈ 0.658 µM)
- MIC V. rotiferianus, No acetic (Vibrio rotiferianus [6]): 1.02 µg/mL (≈ 0.658 µM)
- MIC V. scophthalmi, Acetic (Vibrio scophthalmi [7]): 0.51 µg/mL (≈ 0.329 µM)
- MIC V. scophthalmi, No acetic (Vibrio scophthalmi [7]): 0.51 µg/mL (≈ 0.329 µM)
- MIC E. coli ATCC 25922, salinity 0‰ [8]: 2.03 µg/mL (≈ 1.31 µM)
- MIC E. coli ATCC 25922, salinity 25‰ [8]: > 65 µg/mL
- MIC Pseudoalteromonas sp., salinity 25‰ (Pseudoalteromonas sp.): > 65 µg/mL
- MIC Shewanella sp., salinity 0‰ (Shewanella sp. [9]): 2.03 µg/mL (≈ 1.31 µM)
- MIC Shewanella sp., salinity 25‰ (Shewanella sp. [9]): > 65 µg/mL
- MIC T. discolor, salinity 25‰ (Tenacibaculum discolor): > 65 µg/mL
- MIC V. alginolyticus, salinity 0‰ (Vibrio alginolyticus [10]): 4.06 µg/mL (≈ 2.62 µM)
- MIC V. alginolyticus, salinity 25‰ (Vibrio alginolyticus [10]): > 65 µg/mL
- MIC V. harveyi ATCC 35084, salinity 0‰ [11]: 2.03 µg/mL (≈ 1.31 µM)
- MIC V. harveyi ATCC 35084, salinity 25‰ [11]: > 65 µg/mL
- MIC V. harveyi, salinity 0‰ (Vibrio harveyi [12]): 4.06 µg/mL (≈ 2.62 µM)
- MIC V. harveyi, salinity 25‰ (Vibrio harveyi [12]): > 65 µg/mL
- MIC V. rotiferianus, salinity 0‰ (Vibrio rotiferianus [13]): 1.02 µg/mL (≈ 0.658 µM)
- MIC V. rotiferianus, salinity 25‰ (Vibrio rotiferianus [13]): > 65 µg/mL
- MIC V. scophthalmi, salinity 0‰ (Vibrio scophthalmi [14]): 0.51 µg/mL (≈ 0.329 µM)
- MIC V. scophthalmi, salinity 25‰ (Vibrio scophthalmi [14]): > 65 µg/mL
- requirement for acetic acid (precipitation in MHB) [15]: did not
Structure (SMILES): CC[C@@H](C)[C@@H](NC(=O)[C@@H](C)NC(=O)[C@@H](CCCNC(=N)N)NC(=O)[C@@H](Cc1c[nH]c2ccccc12)NC(=O)[C@@H](CCC(N)=O)NC(=O)[C@H](N)C(C)C)C(=O)N[C@H](CCCNC(=N)N)C(=O)N[C@@H](C(=O)N[C@H](CCCNC(=N)N)C(=O)N[C@@H](C(=O)N[C@@H](C(=O)N[C@H](CCCNC(=N)N)C(N)=O)[C@H](C)CC)C(C)C)C(C)C [DJK5] (H-[dV][dQ][dW][dR][dA][dI][dR][dV][dR][dV][dI][dR]-NH2; N-terminus and C-terminus assumed)
- reduction of bacterial infections in terrestrial organisms [16]: successfully reduced
